Measurements published in ChEMBL document CHEMBL3112539, “Synthesis of neoglycosphingolipid from methoxyamino-functionalized ceramide” (Bioorg Med Chem Lett, 2014).
Activity calls are given as the source filed them. The calls are words filed in the database; no cut-off is given here.

Assays:
[1] = target: T1, Endoglycoceramidase II (Rhodococcus sp) (UniProt A0ACD6B832); test: Inhibition of Rhodococcus sp. recombinant endoglycoceramidase 2 hydrolytic activity assessed as lactose released from O-LacCer at 0.74 mM after 15 mins by modified Park and Johnson method
[2] = target: T1, Endoglycoceramidase II (Rhodococcus sp); test: (§1) Inhibition of Rhodococcus sp. recombinant endoglycoceramidase 2 hydrolytic activity assessed as lactose released from (2S,3S,4R)-2-[N-(octadecanoyl)amino]-1-{O-[beta-galactosylpyranosyl-(1->4)-beta-glucopyranosyl]}octadecane-1,3,4-triol at 0.27 mM after 15 mins by modified Park and Johnson method
[3] = target: T1, Endoglycoceramidase II (Rhodococcus sp); test: as §1, with “Competitive inhibition” for “Inhibition”

T1 sequence (A0ACD6B832 as listed by the source): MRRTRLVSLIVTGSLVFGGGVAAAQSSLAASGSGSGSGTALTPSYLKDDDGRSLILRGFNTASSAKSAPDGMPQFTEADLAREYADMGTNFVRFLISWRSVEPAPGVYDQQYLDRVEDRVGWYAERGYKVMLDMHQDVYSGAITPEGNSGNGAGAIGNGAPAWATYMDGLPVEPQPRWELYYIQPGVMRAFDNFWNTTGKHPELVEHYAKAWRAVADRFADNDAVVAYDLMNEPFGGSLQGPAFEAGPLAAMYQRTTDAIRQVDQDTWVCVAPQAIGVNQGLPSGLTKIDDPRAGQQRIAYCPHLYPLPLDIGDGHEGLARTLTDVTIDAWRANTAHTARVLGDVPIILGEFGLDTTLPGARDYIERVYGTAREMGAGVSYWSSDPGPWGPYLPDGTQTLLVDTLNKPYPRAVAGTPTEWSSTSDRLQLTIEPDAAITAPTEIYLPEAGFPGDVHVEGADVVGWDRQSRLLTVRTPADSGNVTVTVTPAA

inhibition [1]: inactive
inhibition [2]: Active
inhibition [3]: Active
Structure (SMILES): CCCCCCCCCCCCCCCCCC(=O)N[C@@H](CN(OC)[C@@H]1O[C@H](CO)[C@@H](O[C@@H]2O[C@H](CO)[C@H](O)[C@H](O)[C@H]2O)[C@H](O)[C@H]1O)[C@H](O)[C@H](O)CCCCCCCCCCCCCC
